Tested on: anti-EGF rabbit polyclonal antibodies (Abcam 9695)
Test: Dot blot of cellulose-immobilized EGF decapeptides with anti-EGF polyclonal antibodies;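 for Intensity (Staining Value): higher gray value means stronger antibody binding with above 120 very strong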
Type: binding
Details: for Intensity (ability to interact with polyclonal antibodies) / interaction with polyclonal anti-EGF antibodies (in words): peptide on cellulose matrix; for Intensity (ability to interact with polyclonal antibodies): antibody 1:1000, 1 h room temperature; for Intensity (Staining Value): scanned spot, 256 gray scale (ImageJ)
Description: Dot blot reactions were performed using primary anti-EGF rabbit polyclonal antibodies (Abcam 9695) (Cambridge, UK) and secondary goat anti-rabbit antibodies conjugated with HRP (Abcam 205718). The procedure for using the dot blot method to analyze peptides immobilized on a cellulose matrix through a triazine linker was optimized in a previous study by the authors and ensures the elimination of non-specific impacts.
The solution was then removed, and the membranes were treated overnight at room temperature with blocking buffer (3% BSA in PBS, 40 mL, pH 7.4). The cellulose sheets were then washed with PBS buffer (40 mL, 5 min, pH 7.4). […] The membranes were then washed with Tween-80 solution in PBS (0.4%, 40 mL, 2 × 5 min) and PBS (40 mL, 5 min). Goat Anti-Rabbit IgG antibodies were conjugated with HRP (Abcam 205718, 20 μL) diluted 1:1000 in 1% BSA in PBS (20 mL, pH 7.4) and then incubated with cellulose sheets for 30 min at room temperature. The membranes were then washed with Tween-80 solution in PBS (0.4%, 40 mL, 2 × 5 min) and PBS (40 mL, 5 min). Visualization of the reactions was performed using 4-chloro-1-naphtol (Sigma–Aldrich). The cellulose sheets were placed into 0.15 mg/mL solution of 4-chloro-1-naphtol in MeOH:PBS (1:5, 15 mL) with the addition of 7.5 μL of H2O2; reaction time was 30 min. The membranes were washed with distilled water, air-dried, and scanned. In places where immunological complexes developed, blue precipitate was observed. The applied dot blot test procedure ensures the elimination of non-specific interactions. Additionally, using the same SPOT synthesis procedure, a library of type IV collagen fragments was obtained. […] The gray levels of the immunological reactions were determined using ImageJ Version 1.53n7 (https://imagej.nih.gov/ij/index.html, accessed on 17 October 2021) computer imaging software.

Row | Substance | Intensity (ability to interact with polyclonal antibodies) | Intensity (Staining Value) | interaction with polyclonal anti-EGF antibodies (in words)
1 | H-^8LSHDGYCLHD^17-matrix [A8] | +/− (moderately strong (+/−), for which the color intensity value was in the range of 90–45) | 59.3 | –
2 | H-^7PLSHDGYCLH^16-matrix [A7] | +/− (moderately strong (+/−), for which the color intensity value was in the range of 90–45) | 62.2 | –
3 | H-^9SHDGYCLHDG^18-matrix [A9] | +/− (moderately strong (+/−), for which the color intensity value was in the range of 90–45) | 63.8 | –
4 | H-^34VVGYIGERCQ^43-matrix [B14] | +/− (moderately strong (+/−), for which the color intensity value was in the range of 90–45) | 69.4 | –
5 | H-^5ECPLSHDGYC^14-matrix [A5] | +/− (moderately strong (+/−), for which the color intensity value was in the range of 90–45) | – | –
6 | H-^36GYIGERCQYR^45-matrix [B16] | + (strong (+), for which the staining intensity value was in the range of 120–90) | 98.0 | –
7 | H-^16HDGVCMYIEA^25-matrix [A16] | − ((−), where the color intensity value was <45) | 44.8 | low affinity
8 | H-^30ACNCVVGYIG^39-matrix [B10] | +/− (moderately strong (+/−), for which the color intensity value was in the range of 90–45) | 58.5 | –
9 | H-^12GYCLHDGVCM^21-matrix [A12] | + (strong (+), for which the staining intensity value was in the range of 120–90) | 92.4 | –
10 | H-^11DGYCLHDGVC^20-matrix [A11] | + (strong (+), for which the staining intensity value was in the range of 120–90) | 90.5 | –
11 | H-^35VGYIGERCQY^44-matrix [B15] | + (strong (+), for which the staining intensity value was in the range of 120–90) | 91.0 | –
12 | H-^6CPLSHDGYCL^15-matrix [A6] | +/− (moderately strong (+/−), for which the color intensity value was in the range of 90–45) | – | –
13 | H-^14CLHDGVCMYI^23-matrix [A14] | − ((−), where the color intensity value was <45) | 31.6 | inactive
14 | H-^27DKYACNCVVG^36-matrix [B7] | +/− (moderately strong (+/−), for which the color intensity value was in the range of 90–45) | 55.3 | –
15 | H-^43QYRDLKWWEL^52-matrix [C3] | + (strong (+), for which the staining intensity value was in the range of 120–90) | 99.4 | show interactions with polyclonal anti-EGF antibodies
16 | H-^39GERCQYRDLK^48-matrix [B19] | − ((−), where the color intensity value was <45) | 28.9 | do not exhibit the ability to interact with antibodies
17 | H-^41RCQYRDLKWW^50-matrix [C1] | + (strong (+), for which the staining intensity value was in the range of 120–90) | 91.5 | moderate binding to antibodies
18 | H-^26LDKYACNCVV^35-matrix [B6] | +/− (moderately strong (+/−), for which the color intensity value was in the range of 90–45) | 46.6 | –
19 | H-^22YIEALDKYAC^31-matrix [B2] | ++ (very strong (++), for which the staining intensity value was >120) | 122.4 | –
20 | H-^37YIGERCQYRD^46-matrix [B17] | + (strong (+), for which the staining intensity value was in the range of 120–90) | 106.2 | –
21 | H-^40ERCQYRDLKW^49-matrix [B20] | – | – | do not exhibit the ability to interact with antibodies
22 | H-^42CQYRDLKWWE^51-matrix [C2] | + (strong (+), for which the staining intensity value was in the range of 120–90) | 91.4 | moderate binding to antibodies

Row | Substance | Intensity (ability to interact with polyclonal antibodies) | Intensity (Staining Value) | interaction with polyclonal anti-EGF antibodies (in words)
23 | H-^28KYACNCVVGY^37-matrix [B8] | +/− (moderately strong (+/−), for which the color intensity value was in the range of 90–45) | 63.5 | –
24 | H-^19VCMYIEALDK^28-matrix [A19] | ++ (very strong (++), for which the staining intensity value was >120) | 128.0 | –
25 | H-^31CNCVVGYIGE^40-matrix [B11] | +/− (moderately strong (+/−), for which the color intensity value was in the range of 90–45) | 60.3 | –
26 | H-^24EALDKYACNC^33-matrix [B4] | − ((−), where the color intensity value was <45) | 30.5 | no affinity for antibodies
27 | H-^25ALDKYACNCV^34-matrix [B5] | − ((−), where the color intensity value was <45) | 29.6 | –
28 | H-^2SDSECPLSHD^11-matrix [A2] | − ((−), where the color intensity value was <45) | 22.3 | –
29 | H-^38IGERCQYRDL^47-matrix [B18] | +/− (moderately strong (+/−), for which the color intensity value was in the range of 90–45) | 76.1 | –
30 | H-^15LHDGVCMYIE^24-matrix [A15] | − ((−), where the color intensity value was <45) | 41.6 | no affinity for antibodies
31 | H-^44YRDLKWWELR^53-matrix [C4] | + (strong (+), for which the staining intensity value was in the range of 120–90) | 104.2 | show interactions with polyclonal anti-EGF antibodies
32 | H-^21MYIEALDKYA^30-matrix [B1] | ++ (very strong (++), for which the staining intensity value was >120) | 130.3 | –
33 | H-^4SECPLSHDGY^13-matrix [A4] | +/− (moderately strong (+/−), for which the color intensity value was in the range of 90–45) | 55.2 | –
34 | H-^3DSECPLSHDG^12-matrix [A3] | +/− (moderately strong (+/−), for which the color intensity value was in the range of 90–45) | 71.7 | –
35 | H-^18GVCMYIEALD^27-matrix [A18] | + (strong (+), for which the staining intensity value was in the range of 120–90) | 116.0 | –
36 | H-^33CVVGYIGERC^42-matrix [B13] | +/− (moderately strong (+/−), for which the color intensity value was in the range of 90–45) | 65.7 | –
37 | H-^23IEALDKYACN^32-matrix [B3] | +/− (moderately strong (+/−), for which the color intensity value was in the range of 90–45) | 63.8 | lower affinity for antibodies
38 | H-^17DGVCMYIEAL^26-matrix [A17] | +/− (moderately strong (+/−), for which the color intensity value was in the range of 90–45) | 88.9 | –
39 | H-^13YCLHDGVCMY^22-matrix [A13] | + (strong (+), for which the staining intensity value was in the range of 120–90) | 93.0 | –
40 | H-^1NSDSECPLSH^10-matrix [A1] | − ((−), where the color intensity value was <45) | 14.8 | –
41 | H-^32NCVVGYIGER^41-matrix [B12] | +/− (moderately strong (+/−), for which the color intensity value was in the range of 90–45) | 56.3 | –
42 | H-^20CMYIEALDKY^29-matrix [A20] | ++ (very strong (++), for which the staining intensity value was >120) | 132.8 | –
43 | H-^10HDGYCLHDGV^19-matrix [A10] | + (strong (+), for which the staining intensity value was in the range of 120–90) | 91.3 | –

Reference: article PMC10855902 (International Journal of Molecular Sciences, 2024)
